Assay results: PubChem BioAssay (NCI)
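A five-concentration, 48-hour dose response in 96-well plates underlies each endpoint, interpolated linearly between surrounding concentrations. GI50 = concentration required for 50% inhibition of growth. TGI: total growth inhibition.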

Experiments:
Test in all cases: NCI-60 cell line screen, 48 h
[1] = test system: SW-620 colon
[2] = test system: OVCAR-3 ovarian
[3] = test system: SK-MEL-28 melanoma
[4] = test system: SNB-75 CNS
[5] = test system: MOLT-4 leukemia
[6] = test system: NCI-H460 lung
[7] = test system: A549 NSCLC
[8] = test system: MCF7 breast
[9] = test system: 786-0 renal
[10] = test system: OVCAR-4 ovarian
[11] = test system: CCRF-CEM leukemia
[12] = test system: NCI-H23 lung
[13] = test system: MDA-MB-231 breast
[14] = test system: COLO 205 colon
[15] = test system: RPMI-8226 leukemia
[16] = test system: MDA-MB-435
[17] = test system: NCI-H522 lung
[18] = test system: M14 melanoma
[19] = test system: OVCAR-8 ovarian
[20] = test system: EKVX NSCLC
[21] = test system: UO-31 renal
[22] = test system: NCI-H226 lung
[23] = test system: MALME-3M melanoma
[24] = test system: SN12C renal
[25] = test system: HT29 colon
[26] = test system: SF-268 CNS
[27] = test system: T-47D breast
[28] = test system: SNB-19 CNS
[29] = test system: SK-OV-3 ovarian
[30] = test system: TK-10 renal
[31] = test system: A498 renal
[32] = test system: DU-145 prostate
[33] = test system: HOP-92 NSCLC
[34] = test system: HL-60(TB) leukemia
[35] = test system: CAKI-1 renal
[36] = test system: HS 578T breast
[37] = test system: SK-MEL-2 melanoma
[38] = test system: HCC-2998 colon
[39] = test system: HOP-62 NSCLC
[40] = test system: PC-3 prostate
[41] = test system: UACC-257 melanoma
[42] = test system: KM12 colon
[43] = test system: NCI/ADR-RES ovarian
[44] = test system: HCT-116 colon
[45] = test system: U251 CNS
[46] = test system: UACC-62 melanoma
[47] = test system: K-562 leukemia
[48] = test system: SR leukemia
[49] = test system: SK-MEL-5 melanoma
[50] = test system: RXF 393 renal
[51] = test system: SF-295 CNS
[52] = test system: OVCAR-5 ovarian
[53] = test system: BT-549 breast
[54] = test system: SF-539 CNS
[55] = test system: IGROV1 ovarian
[56] = test system: LOX IMVI melanoma
[57] = test system: HCT-15 colon
[58] = test system: ACHN renal

How did the GI50 [1] turn out when `O=C1[C@@H]2Cc3c([nH]c4ccccc34)[C@H](c3c(Cl)cccc3Cl)N2C(=O)CN1C1CCN(Cc2ccccc2)CC1` was run?
The GI50 was 2.93 µM.

And the TGI [1]?
Its TGI is 7.19 µM.

What about the GI50 [2] of the same compound?
Its GI50 is 2.85 µM.

What about the TGI [2] of the same compound?
Its TGI is 6.83 µM.

And the GI50 [3]?
The GI50 was 2.37 µM.

What about the TGI [3] of the same compound?
The TGI was 4.55 µM.

What about the GI50 [4] of the same compound?
Its GI50 is 0.719 µM.

And the TGI [4]?
Its TGI is 3.43 µM.

And the GI50 [5]?
The GI50 was 3.03 µM.

And the TGI [5]?
Its TGI is 13.8 µM.

What about the GI50 [6] of the same compound?
Its GI50 is 2.82 µM.

And the TGI [6]?
The TGI was 5.68 µM.

And the GI50 [7]?
Its GI50 is 2.68 µM.

What about the TGI [7] of the same compound?
The TGI was 7.2 µM.

And the GI50 [8]?
Its GI50 is 2.13 µM.

And the TGI [8]?
The TGI was 4.61 µM.

And the GI50 [9]?
Its GI50 is 2.5 µM.

And the TGI [9]?
The TGI was 4.7 µM.

And the GI50 [10]?
The GI50 was 2.42 µM.

And the TGI [10]?
The TGI was 5.1 µM.

And the GI50 [11]?
The GI50 was 4.33 µM.

What about the TGI [11] of the same compound?
Its TGI is over 14.3 µM.

And the GI50 [12]?
The GI50 was 4.77 µM.

And the TGI [12]?
Its TGI is over 14.3 µM.

What about the GI50 [13] of the same compound?
The GI50 was 2.57 µM.

What about the TGI [13] of the same compound?
Its TGI is 6.27 µM.

What about the GI50 [14] of the same compound?
Its GI50 is 4.09 µM.

What about the TGI [14] of the same compound?
The TGI was over 14.3 µM.

And the GI50 [15]?
The GI50 was 2.74 µM.

And the TGI [15]?
The TGI was 8.28 µM.

What about the GI50 [16] of the same compound?
Its GI50 is 2.36 µM.

And the TGI [16]?
The TGI was 4.81 µM.

What about the GI50 [17] of the same compound?
The GI50 was 2.95 µM.

And the TGI [17]?
Its TGI is 7.7 µM.

And the GI50 [18]?
Its GI50 is 2.42 µM.

And the TGI [18]?
Its TGI is 6.47 µM.

And the GI50 [19]?
The GI50 was 3.8 µM.

What about the TGI [19] of the same compound?
The TGI was 13.1 µM.

What about the GI50 [20] of the same compound?
Its GI50 is 6.78 µM.

And the TGI [20]?
The TGI was over 14.3 µM.

What about the GI50 [21] of the same compound?
The GI50 was 1.43 µM.

What about the TGI [21] of the same compound?
The TGI was 3.15 µM.

What about the GI50 [22] of the same compound?
Its GI50 is 10.6 µM.

And the TGI [22]?
Its TGI is over 14.3 µM.

What about the GI50 [23] of the same compound?
Its GI50 is 2.3 µM.

What about the TGI [23] of the same compound?
The TGI was 4.87 µM.

What about the GI50 [24] of the same compound?
The GI50 was 2.35 µM.

What about the TGI [24] of the same compound?
The TGI was 5.31 µM.

What about the GI50 [25] of the same compound?
Its GI50 is 3.23 µM.

What about the TGI [25] of the same compound?
The TGI was 8.02 µM.

What about the GI50 [26] of the same compound?
Its GI50 is 2.82 µM.

And the TGI [26]?
The TGI was 10.8 µM.

What about the GI50 [27] of the same compound?
Its GI50 is 2.59 µM.

What about the TGI [27] of the same compound?
Its TGI is 7.95 µM.

What about the GI50 [28] of the same compound?
The GI50 was 5.25 µM.

And the TGI [28]?
Its TGI is over 14.3 µM.

What about the GI50 [29] of the same compound?
The GI50 was 2.85 µM.

And the TGI [29]?
The TGI was 8.47 µM.

And the GI50 [30]?
The GI50 was 2.58 µM.

What about the TGI [30] of the same compound?
The TGI was 5.13 µM.

And the GI50 [31]?
The GI50 was 3.49 µM.

What about the TGI [31] of the same compound?
The TGI was 12.4 µM.

What about the GI50 [32] of the same compound?
Its GI50 is 4.55 µM.

And the TGI [32]?
Its TGI is over 14.3 µM.

What about the GI50 [33] of the same compound?
Its GI50 is 1.55 µM.

And the TGI [33]?
The TGI was 7.25 µM.

What about the GI50 [34] of the same compound?
Its GI50 is 4.03 µM.

And the TGI [34]?
Its TGI is 13.6 µM.

And the GI50 [35]?
Its GI50 is 1.81 µM.

What about the TGI [35] of the same compound?
The TGI was 4.79 µM.

What about the GI50 [36] of the same compound?
The GI50 was 2.21 µM.

And the TGI [36]?
The TGI was 6.52 µM.

What about the GI50 [37] of the same compound?
Its GI50 is 4.94 µM.

And the TGI [37]?
The TGI was over 14.3 µM.

And the GI50 [38]?
Its GI50 is 2.27 µM.

What about the TGI [38] of the same compound?
Its TGI is 4.72 µM.

And the GI50 [39]?
The GI50 was 2.29 µM.

And the TGI [39]?
Its TGI is 5.66 µM.

What about the GI50 [40] of the same compound?
The GI50 was 3.06 µM.

And the TGI [40]?
The TGI was 10.7 µM.

And the GI50 [41]?
Its GI50 is 2.46 µM.

And the TGI [41]?
Its TGI is 5.68 µM.

And the GI50 [42]?
The GI50 was 4.59 µM.

And the TGI [42]?
Its TGI is over 14.3 µM.

And the GI50 [43]?
The GI50 was 2.78 µM.

And the TGI [43]?
Its TGI is 6.86 µM.

What about the GI50 [44] of the same compound?
The GI50 was 2.6 µM.

What about the TGI [44] of the same compound?
Its TGI is 5.49 µM.

What about the GI50 [45] of the same compound?
The GI50 was 2.34 µM.

What about the TGI [45] of the same compound?
Its TGI is 4.63 µM.

What about the GI50 [46] of the same compound?
The GI50 was 2.26 µM.

What about the TGI [46] of the same compound?
Its TGI is 4.66 µM.

What about the GI50 [47] of the same compound?
The GI50 was 2.98 µM.

And the TGI [47]?
Its TGI is 7.56 µM.

What about the GI50 [48] of the same compound?
Its GI50 is 2.32 µM.

And the TGI [48]?
The TGI was 6.92 µM.

And the GI50 [49]?
Its GI50 is 2.4 µM.

And the TGI [49]?
The TGI was 4.82 µM.

And the GI50 [50]?
Its GI50 is 1.92 µM.

And the TGI [50]?
The TGI was 3.86 µM.

What about the GI50 [51] of the same compound?
Its GI50 is 2.46 µM.

What about the TGI [51] of the same compound?
Its TGI is 4.62 µM.

What about the GI50 [52] of the same compound?
The GI50 was 3.12 µM.

And the TGI [52]?
The TGI was 9.29 µM.

And the GI50 [53]?
Its GI50 is 2.22 µM.

What about the TGI [53] of the same compound?
Its TGI is 5.17 µM.

And the GI50 [54]?
Its GI50 is 2.37 µM.

What about the TGI [54] of the same compound?
Its TGI is 4.55 µM.

What about the GI50 [55] of the same compound?
The GI50 was 2.07 µM.

What about the TGI [55] of the same compound?
Its TGI is 7.52 µM.

And the GI50 [56]?
The GI50 was 2.21 µM.

What about the TGI [56] of the same compound?
Its TGI is 4.54 µM.

What about the GI50 [57] of the same compound?
The GI50 was 2.52 µM.

And the TGI [57]?
Its TGI is 5.09 µM.

What about the GI50 [58] of the same compound?
Its GI50 is 2.19 µM.

What about the TGI [58] of the same compound?
Its TGI is 4.15 µM.
